Measurements from patent US5972894A, “Peptides having potassium channel opener activity” (Cytran, Inc., priority 1997, dated 1999).

Key:
[1] = tested on: ischemic myocardium; assay: Inotropic function and arrhythmias of ischemic isolated rat heart during reperfusion; conditions: for Diastolic Pressure in Ischemic Left Ventricle (% of Preischemic Mean Value) / Evolving Pressure in Ischemic Left Ventricle (% of Preischemic Mean Value) / Heart Rate during Reperfusion (% of Preischemic Mean Value) / Maximal Rate of Increase of Left Ventricle Pressure (% of Preischemic Mean Value) / Maximal Rate of Left Ventricle Pressure Decrease (% of Preischemic Mean Value) / Systolic Pressure in Ischemic Left Ventricle (% of Preischemic Values): 14.0 mg/l
Text: Rat hearts were surgically isolated from white random-bred rats weighing approximately 250 g. The isolated hearts were perfused with a standard oxygenated (95% O2 and 5% CO2) Krebs-Henseleit solution in a retrograde manner (i.e., according to Langendorff and using a constant perfusate pressure of 80 cm of water). The hearts maintained a steady spontaneous contraction rate. A latex balloon catheter connected to a pressure transducer (EMT-746, Siemens-Elema, Sweden) was inserted into the left ventricle of each heart to measure the inotropic function of the heart (as described in Example 3, above). The left ventricle pressure variation curve was recorded using a polygraph.
Stage I ("adaptation regimen") consisted of a 30-minute adaptation of the respective rat hearts to the perfusion regimen. The baseline parameters for the inotropic function of each heart were recorded to establish the preischemic values for the following measured parameters: (i) the systolic pressure in the left ventricle (Psyst. mm Hg); (ii) the diastolic pressure in the left ventricle (Pdiast. mm Hg); (iii) the evolving pressure (Pev. =Psyst. -Pdist. mm Hg); (iv) the maximal rate of increase of left ventricle pressure (+dp/dtmax mm Hg/sec); and (v) the maximal rate of decrease of left ventricle pressure (-dp/dtmax mm Hg/sec). In addition, the heart rate (HR) of each heart was determined from the recordings made of the variations in the left ventricle pressure over time. In Stage II ("ischemic simulation"), ischemia was induced in each heart by shutting off the supply of the perfusion solution to the heart. Approximately 30 minutes later, Stage III ("reperfusion regimen") was initiated by restarting the reperfusion and including in the perfusate solution a test or control substance at one of the following respective concentrations: a perfusate solution of a test substance comprised 0.06, 0.6, or 6.0 mg/l GE, or 0.06, 0.6, or 6.0 mg/l VT, respectively; a perfusate solution of the positive control substance comprised 14 mg/l inosine. Inosine is a nucleoside preparation that produces a favorable inotropic effect on both normal and ischemic myocardium while inducing no rhythm disturbances or acceleration of ischemic contracture development. Woollard et al., Cardiovasc. Res. 15: 659-67 (1981). Inosine was obtained from Sigma Chemical Company, USA (Cat. Code I-4125; lot number 81H0227). The negative control substance comprised reperfusion using a standard oxygenated Krebs-Henseleit solution.
For each heart, the inotropic function of the myocardium was evaluated by measuring the parameters (i) through (v), discussed above, and the heart rate. These six parameters were recorded continuously throughout the study (i.e., beginning with Stage I and continuing through Stage III). The recordings were analyzed at the following times: (a) immediately before beginning Stage II (that is, after the 30-minute Stage I adaptation period, but before stopping perfusion); and (b) at 1, 5, 10, 20, and 30 minutes into the Stage III reperfusion.
The frequency and duration of rhythm disturbances in the 30-minute Stage III reperfusion period were determined by measuring the following parameters: (i) the number of ventricular extrasystoles; (ii) the overall duration of ventricular tachycardias (in seconds); and (iii) the overall duration of ventricular fibrillation (in seconds). Each dose of the test substance was tested on nine isolated hearts.

[2] = tested on: Isolated Rat Heart; assay: Inotropic function of normal isolated rat heart, Langendorff perfusion; conditions: dose 0.01 mg
Text: Rat heart specimens were obtained surgically from white random-bred male rats weighing approximately 250 g. The hearts were established in culture using retrograde heart perfusion according to the Langendorff method performed with a standard oxygenated (95% O2 and 5% CO2) Krebs-Henseleit solution through a glass aorta cannula. The retroperfusion pressure forces the aortic valves shut. In this way, the oxygenated solution passed only through the coronary vasculature of the heart such that both ventricles remain effectively empty. Perfusion conditions: An average constant perfusate flow rate of 15 to 25 ml/min was maintained with a constant perfusate pressure of 80 cm H2 O. Pressure Measurements: A latex balloon catheter connected with a pressure transducer ([…], Sweden) was inserted into the left ventricle of the heart to measure parameters of the inotropic function of the heart. The intraventricle pressure variation curve for the left ventricle was recorded with a polygraph. Experimental Protocol: GE and VT served as the test substances. After a 30-minute adaptation of the heart to the organ culture perfusion conditions, a set of basal (control) measurements was taken, as described in (i) through (v) below. […] See GOODMAN […] THE PHARMACOLOGICAL BASIS OF THERAPEUTICS 160 (Goodman et al., eds., 7th ed. 1985), incorporated herein by reference in its entirety for all purposes. Each dose of each respective test or reference substance was tested on four different rat hearts. The inotropic functions of each of the four rat hearts were evaluated by measuring: (i) the systolic pressure in the left ventricle ([…] diastolic pressure in the left ventricle ([…] evolving pressure (Pev. =[…]); (iv) the maximal rate of increase of left ventricle pressure (+dp/dtmax mm Hg/sec); and (v) the maximal rate of decrease of left ventricle pressure (-dp/dtmax mm Hg/sec). In addition, the heart rate (HR) of each heart was determined from the pressure variation recordings made of the left ventricle pressure.

[3] = tested on: rats; assay: Arterial blood pressure in anesthetized rats; type: in vivo; conditions: 5 mg/kg i.v.
Experimental: White random-bred male rats weighing approximately 200 g were employed for this study. Each dose of each respective test or control substance was administered to a group of five rats. GE and VT were employed as test substances and were administered intravenously at doses of 0.01, 0.1, 1.0, and 10.0 mg/kg. Physiological saline (0.2 ml) served as the negative control substance. The ganglionic blocking agent, pentamine, served as the positive control substance and was tested at a dose of 5 mg/kg. Following administration of the test substance, positive control substance, or negative control substance, the arterial blood pressure of each animal was monitored.
Prior to administration of the test or control substance, each animal was anesthetized with Chloralose and then both its carotid artery and jugular vein were catheterized. The carotid catheter was connected to an electronic manometer attached to a computer recorder through an analog-to-digital converter. The mean basal level of the arterial blood pressure was determined as follows: For a period of 30 seconds, the digital signal pertaining to the arterial blood pressure was recorded at 1-second intervals. The mean value of these thirty individual measurements was then determined and recorded.
After determining the mean basal level of the arterial blood pressure, a particular dose of the test or control substance was administered in a volume of 0.2 ml of physiological saline to an animal through the jugular venous catheter. Measurements of the arterial blood pressure were then taken during the next 1.5 hours as follows: (i) during the first 5 minutes, the arterial blood pressure was being monitored continuously and mean values were calculated electronically and recorded at each of the ten different 30-second intervals (i.e., 30th second, 60th second, etc.); (ii) thereafter, mean values of the arterial blood pressure were calculated at the first seconds of 10th minute, 15th minute, 30th minute, 45th minute, 60th minute, 75th minute, and 90th minute after administration of the respective test or control substance.

[4] = 14.1 mg/l, 30-minute reperfusion

## OC[C@H]1O[C@@H](n2cnc3c(O)ncnc32)[C@H](O)[C@@H]1O [Inosine, reference compound]
[1]; 1 min reperfusion
  Diastolic Pressure in Ischemic Left Ventricle (% of Preischemic Mean Value): 92.35%
  Evolving Pressure in Ischemic Left Ventricle (% of Preischemic Mean Value): 57.13%
  Heart Rate during Reperfusion (% of Preischemic Mean Value): 45.37%
  Maximal Rate of Increase of Left Ventricle Pressure (% of Preischemic Mean Value): 50.85%
  Maximal Rate of Left Ventricle Pressure Decrease (% of Preischemic Mean Value): 41.91%
  Systolic Pressure in Ischemic Left Ventricle (% of Preischemic Values): 62.15%
[1]; 5 min reperfusion
  Diastolic Pressure in Ischemic Left Ventricle (% of Preischemic Mean Value): 111.83%
  Evolving Pressure in Ischemic Left Ventricle (% of Preischemic Mean Value): 57.59%
  Heart Rate during Reperfusion (% of Preischemic Mean Value): 69.97%
  Maximal Rate of Increase of Left Ventricle Pressure (% of Preischemic Mean Value): 54.25%
  Maximal Rate of Left Ventricle Pressure Decrease (% of Preischemic Mean Value): 65.94%
  Systolic Pressure in Ischemic Left Ventricle (% of Preischemic Values): 66.17%
[1]; 10 min reperfusion
  Diastolic Pressure in Ischemic Left Ventricle (% of Preischemic Mean Value): 139.32%
  Evolving Pressure in Ischemic Left Ventricle (% of Preischemic Mean Value): 82.33%
  Heart Rate during Reperfusion (% of Preischemic Mean Value): 67.52%
  Maximal Rate of Increase of Left Ventricle Pressure (% of Preischemic Mean Value): 82.35%
  Maximal Rate of Left Ventricle Pressure Decrease (% of Preischemic Mean Value): 78.85%
  Systolic Pressure in Ischemic Left Ventricle (% of Preischemic Values): 86.05%
[1]; 20 min reperfusion
  Diastolic Pressure in Ischemic Left Ventricle (% of Preischemic Mean Value): 148.63%
  Evolving Pressure in Ischemic Left Ventricle (% of Preischemic Mean Value): 94.19%
  Heart Rate during Reperfusion (% of Preischemic Mean Value): 79.97%
  Maximal Rate of Increase of Left Ventricle Pressure (% of Preischemic Mean Value): 83.58%
  Maximal Rate of Left Ventricle Pressure Decrease (% of Preischemic Mean Value): 91.83%
  Systolic Pressure in Ischemic Left Ventricle (% of Preischemic Values): 99.29%
[1]; 30 min reperfusion
  Diastolic Pressure in Ischemic Left Ventricle (% of Preischemic Mean Value): 149.42%
  Evolving Pressure in Ischemic Left Ventricle (% of Preischemic Mean Value): 91.68%
  Heart Rate during Reperfusion (% of Preischemic Mean Value): 75.60%
  Maximal Rate of Increase of Left Ventricle Pressure (% of Preischemic Mean Value): 77.85%
  Maximal Rate of Left Ventricle Pressure Decrease (% of Preischemic Mean Value): 93.88%
  Systolic Pressure in Ischemic Left Ventricle (% of Preischemic Values): 96.62%
[1]; 14 mg/l, after approximately 10 to 20 minutes
  -dp/dtmax, % of preischemic value: about 80%
[1]; [4]
  Number of Ventricular Extrasystoles: 230.4
  Overall Duration of Ventricular Fibrillation: 52.9 s
  Overall Duration of Ventricular Tachycardia: 1.3 s

## CC(C)NCC(O)c1ccc(O)c(O)c1 (stereo not drawn) [Isoproterenol, isoproterenol, reference compound]
[2]
  +dp/dtmax % of Basal Level: 122%
  +dp/dtmax Subst. Level: 2110 mm Hg/sec
  -dp/dtmax % of Basal Level: 112%
  -dp/dtmax Subst. Level: 1140 mm Hg/sec
  HR % of Basal Level: 133%
  HR abs, Subst. Level: 255 hb/min
  Pdiast % of Basal Level: 120%
  Pdiast abs, Subst. Level: 12 mm Hg
  Pev % of Basal Level: 118%
  Pev Subst. Level: 108 mm Hg
  Psyst % of Basal Level: 117%

## CC[N+](C)(C)CCN(C)CC[N+](C)(C)CC [Pentamine, pentamine, reference compound]
[3]; 1 min
  Arterial Blood Pressure (Basal Level = 100.00): 87.09%
[3]; 2 min
  Arterial Blood Pressure (Basal Level = 100.00): 68.18%
[3]; 3 min
  Arterial Blood Pressure (Basal Level = 100.00): 70.82%
[3]; 4 min
  Arterial Blood Pressure (Basal Level = 100.00): 69.29%
[3]; 5 min
  Arterial Blood Pressure (Basal Level = 100.00): 74.11%
[3]; 10 min
  Arterial Blood Pressure (Basal Level = 100.00): 91.63%
[3]; 15 min
  Arterial Blood Pressure (Basal Level = 100.00): 89.94%
[3]; 30 min
  Arterial Blood Pressure (Basal Level = 100.00): 86.95%
[3]; 45 min
  Arterial Blood Pressure (Basal Level = 100.00): 93.89%
[3]; 60 min
  Arterial Blood Pressure (Basal Level = 100.00): 100.31%
[3]; 75 min
  Arterial Blood Pressure (Basal Level = 100.00): 94.38%
[3]; 90 min
  Arterial Blood Pressure (Basal Level = 100.00): 93.22%
